Source: US20080182848A1, “Novel Process” (priority 2005, published 2008)

Test: solubility in the mobile phase (isopropanol)
Assay type: physicochemical
Conditions: organic solvent or mixture; crude material; isopropanol as the mobile phase
Description: Racemic zopiclone was subjected to preparative chromatography using Chiralcel® OD as the stationery phase and isopropanol as the mobile phase. Under these conditions the crude material has a good solubility in the mobile phase (>1.0 g/liter) and the typical retention time for the R-isomer is 12.3 minutes and for the S-isomer is 17.8 minutes. Some physico-chemical properties of the S-zopiclone obtained are set out in table 1.

Structure (SMILES): CN1CCN(C(=O)OC2c3nccnc3C(=O)N2c2ccc(Cl)cn2)CC1 (racemic) [Racemic zopiclone, (±) of 6-(5-chloro-2-pyridinyl)-6,7-dihydro-7-oxo-5H-pyrrolo-[3,4b]-pyrazin-5-yl-4-methylpiperazine-1-caboxylate]
- solubility: > 1000 µg/mL
